Like-named read-outs stand apart in the source and are kept apart here.
How the values were obtained:
[1] = molecular target: T1, HIF-2α HIS TAG-PASB Domain (Homo sapiens, UniProt Q99814); assay: HIF-2α Scintillation Proximity Assay (SPA); assay type: binding
T1 construct: 100 nM HIF-2α HIS TAG-PASB Domain
Outline: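 IC50 values rest on percent inhibition, where the sample signal is scaled between high and low controls. Wells contain about 100 μL: compound dispensed as 2 μL of DMSO solution, 88 μL protein-probe mix and 10 μL of beads.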

786-O-Hif-Luc cells = assay: Luciferase Assay (HIF responsive elements reporter)
Experimental: A pool of infected cells were then selected against 2 μg/mL of puromycin (P8833, Sigma) for 10 days followed by limited dilution to select single clones. […] Each concentration was tested in triplicate. After about 24 hours, luciferase activity was determined using ONE-Glo Luciferase Assay Reagent (E6110, Promega) following the manufacturer's recommended procedure. EC50 were calculated using Dotmatics software.

[2] = read-out: Scintillation Proximity Assay IC50
[3] = read-out: Mean Luciferase EC50 (nM), 786-O-Hif-Luc cells
[4] = Scintillation Proximity Assay IC50 (nM)
[5] = read-out: Mean Luciferase EC50 (nM)

T1 sequence (Q99814 240-350 limits assumed): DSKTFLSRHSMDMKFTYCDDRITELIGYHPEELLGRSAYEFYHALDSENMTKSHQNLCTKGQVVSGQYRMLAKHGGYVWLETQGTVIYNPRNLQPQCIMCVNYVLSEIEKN

| Structure (SMILES) | IC50 [1, 2] | EC50 (786-O-Hif-Luc cells; [3]) | IC50 [1, 4] | EC50 (786-O-Hif-Luc cells; [5]) |
| --- | --- | --- | --- | --- |
| O=S(=O)(c1ccc(Oc2c(F)ccc3[nH]ncc23)c2c1[C@H](O)C(F)(F)C2)C(F)(F)F [Compound 264] | 250 to 1000 nM | > 1000 nM |  |  |
| N#Cc1cncc(Nc2ccc(S(=O)(=O)C(F)(F)F)c3c2CC(F)(F)[C@H]3O)c1 [Compound 488, (S)-5-((2,2-difluoro-1-hydroxy-7-((trifluoromethyl)sulfonyl)-2,3-dihydro-1H-inden-4-yl)amino)nicotinonitrile] | 50 to 249 nM | 50 to 249 nM |  |  |
| COC[C@H](C)Oc1ccc(S(=O)(=O)C(F)(F)F)c2c1CC(F)(F)[C@H]2O [Compound 660] | 50 to 249 nM | 250 to 1000 nM |  |  |
| COCC(C)Oc1ccc(S(=O)(=O)C(F)(F)F)c2c1CC(F)(F)C2O (stereo not shown) [Compound 594] | < 50 nM | 50 to 249 nM |  |  |
| CS(=O)(=O)c1ccc(Oc2cc(F)cc(Cl)c2)c2c1C(O)CC2 (stereo not shown) [Compound 90] | 50 to 249 nM | 250 to 1000 nM |  |  |
| CS(=O)(=O)c1ccc(Oc2cc(F)cc(Cl)c2)c2c1[C@H](O)C(F)(F)C2 [Compound 160] | < 50 nM | < 50 nM |  |  |
| CCCOc1ccc(S(=O)(=O)C(F)(F)F)c2c1CC(F)(F)C2O (stereo not shown) [Compound 584] | 50 to 249 nM | < 50 nM |  |  |
| CC1(C)C[C@H](O)C[C@@H](c2ccc(S(=O)(=O)C(F)(F)F)c3c2CC(F)(F)[C@H]3O)C1 [Compound 549] | < 50 nM | 50 to 249 nM |  |  |
| N#Cc1c(S(=O)(=O)C(F)(F)F)ccc(Oc2cc(F)cc(Cl)c2)c1Cl [Compound 111] | < 50 nM | > 1000 nM |  |  |
| N#CN=S(=O)(CF)c1ccc(Oc2cc(F)cc(C#N)c2)c2c1[C@H](O)C(F)(F)C2 (stereo partly shown) [Compound 285] | 50 to 249 nM | 50 to 249 nM |  |  |
| O=S(=O)(CF)c1ccc(Oc2cc(F)cc(F)c2)c2c1C(O)CC2 (stereo not shown) [Compound 59] | < 50 nM | 50 to 249 nM |  |  |
| O=S(=O)(c1ccc(OCC2(F)COC2)c2c1[C@H](O)C(F)(F)C2)C(F)(F)F [Compound 573] | < 50 nM | 50 to 249 nM |  |  |
| O=S(=O)(c1ccc(Nc2cc(F)cc(F)c2)c2c1[C@H](O)CC2)C(F)(F)F [Compound 531] | 250 to 1000 nM | 250 to 1000 nM |  |  |
| N#Cc1cccc(Oc2ccc(S(=O)(=O)C(F)F)c(CO)c2Br)c1 [Compound 81] | 250 to 1000 nM | 250 to 1000 nM |  |  |
| CS(=O)(=O)c1ccc(OC[C@H]2C[C@@H]2C#N)c2c1[C@H](O)C(F)(F)[C@@H]2F [Compound 770] | 250 to 1000 nM | > 1000 nM |  |  |
| O=S(=O)(c1ccc(O[C@H]2CCCOC2)c2c1[C@H](O)C(F)(F)C2)C(F)(F)F [Compound 731] | < 50 nM | 50 to 249 nM |  |  |
| O=S1(=O)c2ccc(OCc3ccccc3)c(C(F)F)c2C(O)C1(F)F (stereo not shown) [Compound 411] | 250 to 1000 nM | 250 to 1000 nM |  |  |
| COC(=O)COc1ccc(S(=O)(=O)C(F)(F)F)c2c1CC(F)(F)C2O (stereo not shown) [Compound 639] | > 1000 nM | > 1000 nM |  |  |
| O=S(=O)(c1ccc(Oc2cncc(F)c2)c2c1[C@H](O)CC2)C(F)F [Compound 5] | 250 to 1000 nM | 250 to 1000 nM |  |  |
| O=S1(=O)CC(O)c2c1ccc(Oc1cc(F)cc(F)c1)c2C(F)F (stereo not shown) [Compound 370] | 50 to 249 nM | 250 to 1000 nM |  |  |
| O=S(=O)(c1ccc(-c2cc(F)cc(Cl)c2)c2c1[C@H](O)C(F)(F)C2)C(F)(F)F [Compound 557] | < 50 nM | 250 to 1000 nM |  |  |
| O=S1(=O)c2ccc(Oc3cncc(F)c3)c(Br)c2[C@@H](O)C1(F)F [Compound 423] | 250 to 1000 nM | 50 to 249 nM |  |  |
| N#Cc1cc(F)cc(Oc2ccc(S(N)(=O)=O)c3c2C[C@@H](F)[C@H]3O)c1 [Compound 334] | 50 to 249 nM | 50 to 249 nM |  |  |
| N#Cc1cc(F)cc(-c2ccc(S(=O)(=O)C(F)(F)F)c3c2CC(F)(F)[C@H]3O)c1 [Compound 486, (S)-3-(2,2-difluoro-1-hydroxy-7((trifluoromethyl)sulfonyl)-2,3-dihydro-1H-inden-4-yl)-5-fluorobenzonitrile] | < 50 nM | 50 to 249 nM |  |  |
| NCc1c(S(=O)(=O)C(F)F)ccc(Oc2cc(F)cc(Cl)c2)c1Br [Compound 85] |  | > 1000 nM | > 1000 nM |  |
| N#Cc1cc(F)cc(Oc2ccc(S(=O)(=O)C3CCC3)c3c2CC(F)(F)[C@H]3O)c1 [Compound 209] | 250 to 1000 nM | > 1000 nM |  |  |
| OC1CCc2c(OCC(F)F)ccc(C(F)(F)F)c21 (stereo not shown) [Compound 696] | 50 to 249 nM | 50 to 249 nM |  |  |
| O=S(=O)(c1ccc(Oc2cc(F)cc(F)c2)c(Cl)c1CO)C(F)F [Compound 168] | < 50 nM | 250 to 1000 nM |  |  |

| Structure (SMILES) | IC50 [1, 2] | EC50 (786-O-Hif-Luc cells; [3]) | IC50 [1, 4] | EC50 (786-O-Hif-Luc cells; [5]) |
| --- | --- | --- | --- | --- |
| CC1CC(Oc2ccc(S(=O)(=O)C(F)(F)F)c3c2CC(F)(F)C3O)CCO1 (stereo not shown) [Compound 623] | < 50 nM | 50 to 249 nM |  |  |
| CO[C@H]1C[C@@H](Oc2ccc(S(=O)(=O)C(F)(F)F)c3c2CC(F)(F)[C@H]3O)C1 [Compound 715] | < 50 nM | 50 to 249 nM |  |  |
| O=S1(=O)c2ccc(Oc3cc(F)cc(Cl)c3)c(Br)c2[C@@H](O)C1(F)F [Compound 403] |  |  | < 50 nM | < 50 nM |
| CS(=O)(=O)c1ccc(OC2CC(F)(F)C2)c2c1[C@H](O)[C@H](F)C2 [Compound 585] | < 50 nM | 250 to 1000 nM |  |  |
| O=S(=O)(c1ccc(OC2CCCCC2)c2c1C(O)CC2)C(F)(F)F (stereo not shown) [Compound 616] | 50 to 249 nM | 250 to 1000 nM |  |  |
| O=S(=O)(c1ccc(-c2ccccc2)c2c1[C@H](O)C(F)(F)C2)C(F)(F)F [Compound 487, (S)-2,2-difluoro-4-phenyl-7-((trifluoromethyl)sulfonyl)-2,3-dihydro-1H-inden-1-ol] | 250 to 1000 nM | > 1000 nM |  |  |
| O=S(=O)(c1ccc(Oc2cc(Cl)cc(Cl)c2)c(Br)c1)C(F)(F)F [Compound 172] | 250 to 1000 nM | > 1000 nM |  |  |
| CCOc1ccc(S(C)(=O)=O)c2c1CC(F)(F)[C@H]2O [Compound 778] | < 50 nM | > 1000 nM |  |  |
| O=S(=O)(c1ccc([C@H]2CCC[C@@H](O)C2)c2c1[C@H](O)C(F)(F)C2)C(F)(F)F [Compound 483] | < 50 nM | 250 to 1000 nM |  |  |
| O[C@H]1c2c(C(F)(F)F)ccc(OCCCF)c2[C@@H](F)C1(F)F [Compound 582] | < 50 nM | < 50 nM |  |  |
| CS(=O)(=O)c1ccc(OCC2(C#N)CC2)c2c1[C@H](O)C(F)(F)[C@@H]2F [Compound 754] | 250 to 1000 nM | > 1000 nM |  |  |
| C[C@H]1C[C@@H](O)c2c(S(=O)(=O)C(F)F)ccc(Oc3cc(F)cc(Cl)c3)c21 [Compound 7a] |  |  |  | 250 to 1000 nM |
| CNS(=O)(=O)c1ccc(Oc2cc(F)cc(C#N)c2)c2c1[C@H](O)C(F)(F)C2 [Compound 254] |  |  |  | 50 to 249 nM |
| CS(=O)(=O)c1ccc(Oc2cc(F)cc(C#N)c2)c2c1[C@H](O)[C@H](F)C2 [Compound 231] |  |  |  | < 50 nM |
| N#CC1(COc2ccc3c(c2C(F)F)C(O)C(F)(F)S3(=O)=O)CC1 (stereo not shown) [Compound 455] |  | > 1000 nM |  |  |
| [2H][C@]1(O)c2c(S(C)(=O)=O)ccc(Oc3cc(F)cc(C#N)c3)c2CC1(F)F [Compound 247] |  |  |  | < 50 nM |
| CS(=O)(=O)c1ccc(Oc2cc(F)cc(C#N)c2)c2c1[C@H](O)[C@H](F)[C@H]2F [Compound 294] |  | 250 to 1000 nM |  |  |
| N#Cc1cc(F)cc(Oc2ccc(S(N)(=O)=O)c3c2[C@H](F)C(F)(F)[C@H]3O)c1 [Compound 339] |  |  |  | 250 to 1000 nM |
| Cn1cc(Oc2ccc(S(=O)(=O)C(F)(F)F)c3c2CC(F)(F)[C@H]3O)cn1 [Compound 224] |  | 50 to 249 nM |  |  |
| CS(=O)(=O)c1ccc(Oc2cc(F)cc(C#N)c2)c2c1C(O)CC2 (stereo not shown) [Compound 222] |  | > 1000 nM |  |  |
| CS(=O)(=O)c1ccc(Oc2cc(F)cc(C#N)c2)c2c1C(O)C(F)C2 (stereo not shown) [Compound 232] |  |  |  | < 50 nM |
| CS(=O)(=O)c1ccc(Oc2cc(F)cc(C#N)c2)c2c1[C@H](N)C(F)(F)C2 [Compound 165] |  |  |  | 50 to 249 nM |
| CS(=O)(=O)c1ccc(Oc2cc(F)cc(C#N)c2)c2c1[C@H](O)[C@H](F)[C@@H]2F [Compound 289, 3-[(1S,2S,3R)-2,3-difluoro-1-hydroxy-7-methylsulfonyl-indan-4-yl]oxy-5-fluoro-benzonitrile] |  |  |  | < 50 nM |
| N#Cc1cc(F)cc(Oc2ccc(S(N)(=O)=O)c3c2CC(F)(F)[C@H]3O)c1 [Compound 252] |  |  |  | 50 to 249 nM |
| O=S(=O)(c1ccc(Oc2cncc(Cl)c2)c2c1[C@H](O)C(F)(F)C2)C(F)F [Compound 25] |  | < 50 nM |  |  |
| N#Cc1cccc(Oc2ccc(S(=O)(=O)C(F)F)c(CO)c2Cl)c1 [Compound 43] |  | 250 to 1000 nM |  |  |
| O=S(=O)(c1ccc(Oc2ccc(F)c3[nH]ncc23)c2c1[C@H](O)C(F)(F)C2)C(F)(F)F [Compound 266] |  | < 50 nM |  |  |

From patent US10278942B2 (PELOTON THERAPEUTICS, INC., priority 2015, dated 2019)
